Here are results for 1 compound from PMC8201479, “Trisubstituted Pyrrolinones as Small-Molecule Inhibitors Disrupting the Protein–RNA Interaction of LIN28 and Let-7” (ACS Medicinal Chemistry Letters, 2021).

One assay addresses T1, LIN28–let-7 interaction (Homo sapiens, UniProt Q9H9Z2).
T1 construct: Purified LIN28A (residues 16–187) was incubated at a concentration of 200 nM; His-tag (cleaved yes); made in house; host or cells: Escherichia coli BL21(DE3)
T1 sequence (Q9H9Z2 16-187): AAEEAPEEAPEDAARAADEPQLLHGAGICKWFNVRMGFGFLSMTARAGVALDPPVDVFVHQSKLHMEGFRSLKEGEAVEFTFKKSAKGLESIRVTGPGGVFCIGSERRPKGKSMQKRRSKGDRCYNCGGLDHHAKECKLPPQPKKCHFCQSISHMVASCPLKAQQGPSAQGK
Kind of assay: Fluorescence polarization (FP) assay, LIN28A (residues 16–187) and FAM-labeled preE-let-7f-1. It counts as binding. To be noted: text and figures; C-labels = library sample, PH-labels = in-house resynthesized; read-out: IC50 in the FP assay. The procedure:
Protein expression and purification.
19 vector and overexpressed in Escherichia coli BL21(DE3). The culture was incubated at 37 °C until
the absorbance at 600 nm (OD600) reached 0.5–0.7. IPTG was added to a final concentration of
300 µM, and overnight induction was performed at 18 °C. Cells were harvested by centrifugation.
The bacterial pellet was resuspended in lysis buffer (50 mM NaH2PO4, pH 7.5, 300 mM NaCl,
0.1 mM PMSF) and lysed using a Microfluidizer (Microfluidics) . A fresh portion of 0.1 mM PMSF
and Triton X-100 (1% final concentration) were added. The lysate was cleared by ultra centrifugation
at 30000 xg and 4 °C for 1 h. The protein purification was performed using immobilized nickel
300 mM NaCl and 5 % glycerol. Gradient elution was performed with a maximum of 0.5 M imidazole.
Subsequently, the affinity tag was cleaved using His6 -TEV-protease and the protease and unspecific
binders were eliminated by a second nickel affinity chromatography. After protein concentration
LIN28A containing fractions were concentrated and applied to a High Load Superdex 75 pg 16/600
column (GE Healthcare) with gel-filtration buffer (30 mM NaH2PO4, pH 7.5, 50 mM NaCl, 5%
glycerol, 2 mM β-ME). The purified protein was concentrated and stored at -80 °C until further
Fluorescence polarization. The fluorescence polarization assay was performed in black low volume
IC50 measurements were performed with three technical
minutes with compound concentrations ranging from 0.3 nM to 100 µM in FP assay buffer (20 mM
Tris, pH 7, 100 mM NaCl, 5 mM MgCl2, 2 mM glutathione (reduced), 0.1 % NP-40). Subsequently,
FAM-labeled preE-let-7f-1 (mus musculus) ([…]-
FAM, synthesized by IDT) was added to a final concentration of 2 nM. Fluorescence polarization
was detected after incubation at room temperature using a TECAN Spark plate reader. Half maximal
inhibitory concentrations (IC50) were determined using GraphPad Prism 7. […]
On the technique in general: Polarisation of emitted light reports the rotation of a fluorescent probe.

A further assay deals with JAR cells. The experiment in a line: RT-qPCR of mature let-7 in JAR cells. The format is cell-based, human. To be noted: 24 h treatment. The procedure:
differential scanning fluorimetry (nanoDSF) instrument at temperatures between 20 °C and 90 °C and a temperature slope of 1 °C per minute with an excitation power of 50–60 %. A total protein concentration of 30 µM and compound concentrations from 100 µM to 0.78 µM corresponding to […] to 0.039 % DMSO, respectively, were used. Compound and protein were incubated for 45 minutes at room temperature in buffer containing 30 mM NaH2PO4, 50 mM NaCl, 1 mM MgCl2, and 50 µM ZnCl2 at pH 8 and 10 µL sample was loaded to each nanoDSF standard capillary (NanoTemper). The ratio of intrinsic tryptophan fluorescence at 350 nm and 330 nm was measured and the first derivative was determined to detect the inflection points using the software of the device.
RT-qPCR. JAR cells (obtained from DSMZ, German Collection of Microorganisms and Cell Cultures, Braunschweig, Germany, DSMZ no. ACC462)1 were cultured in 24-well plates and treated with the compound (PH-31) for 24 h with a total DMSO concentration of 0.5 % in all wells. RNA was extracted using RNeasy Mini Kit (Qiagen) and 20 ng of total RNA was used for reverse transcription using the TaqMan microRNA Reverse Transcription Kit (Applied Biosystems) following the manufacturer's protocols. […]
(Real-time PCR tracks product formation cycle by cycle.)

Each structure is given as a SMILES string.

With `O=C(C1=C(O)C(=O)N(c2ccc(O)c(C(=O)O)c2)C1c1ccc(-c2nccs2)cc1)c1ccc(Br)cc1` (stereo not drawn) [C902/PH-31], the IC50 on LIN28–let-7 interaction turned out to be 18 µM. Further, in the assay on JAR cells, the “level of mature let-7a” value is given as “increased levels” and the “level of mature let-7g” value is “increased levels”.

For orientation: IC50 means the concentration at which inhibition is half-maximal.
